Where two headings read alike, the source gives them in different places.
Columns and labels:
[1] = system: monkeys; conditions: monkeys trained to discriminate cocaine, preliminary unpublished results
[2] = system: rhesus monkeys; conditions: 5 day treatment, 3.0 mg/kg i.v., two of three monkeys
[3] = system: 64 radioligand/enzyme assays; conditions: 10 μM; e.g. α1 adrenergic, α2 adrenergic, histamine H1, sodium channel site 2, CCK1, NK2
[4] = system: cynomolgus monkeys
[5] = system: rats; conditions: unpublished results
[6] = system: rats
[7] = system: rats; conditions: cited from earlier work
[8] = system: rats; conditions: cited from earlier work; remark: listed apart in the source
[9] = system: rats; conditions: cited from earlier work; remark: listed apart in the source
[10] = system: D3R; conditions: cited from earlier work
[11] = system: tobacco smokers; conditions: smokers after overnight abstinence; cited from earlier work
[12] = system: overweight and obese subjects; conditions: cited from earlier work
[13] = system: abstinent smokers; conditions: cited from earlier work
[14] = system: humans; conditions: cited from earlier work
[15] = system: rhesus monkeys; conditions: cited from earlier work
[16] = system: squirrel monkeys; conditions: cited from earlier work
[17] = system: rhesus monkeys; conditions: cited from earlier work; remark: listed apart in the source
[18] = system: monkeys; conditions: cited from earlier work
[19] = system: monkeys; conditions: 5 day treatment; cited from earlier work
[20] = system: cocaine abusers; conditions: cited from earlier work
[21] = system: D3R; conditions: primates, PET, oral 1.0 mg/kg; cited from earlier work
[22] = history of long access (6 h per day, 6 days per week)
[23] = history of short access (1 h per day, 3 days per week)

O=C(NCCC(O)CN1CCN(c2cccc(Cl)c2Cl)CC1)c1cc2ccccc2[nH]1 (racemic) [(±)-1, N-(4-(4-(2,3-dichlorophenyl)piperazin-1-yl)-3-hydroxybutyl)-1H-indole-2-carboxamide]
substitution for cocaine [1]: does not substitute for cocaine | effect on METH choice curve [2]: produced a leftward shift of the METH choice curve | hits in the receptor panel [3]: only “hit” a few | cocaine choice, group data, posthoc comparison ([4]; 0.01 mg/kg cocaine available as the alternative to food): significant increase in cocaine choice | effect on cocaine choice curve ([4]; seven cynomolgus monkeys, acute i.v., in all but one monkey): either shifted the cocaine choice curve to the left (4 subjects) or had no effect (2 subjects) | effect on 7-OH DPAT-induced yawning [5]: attenuated 7-OH DPAT-induced yawning in rats | Dunnett's test p vs vehicle, PR break points normalized to baseline ([6]; 3.0 mg/kg i.p.): > 0.05 | Dunnett's test p vs vehicle, number of METH injections ([6]; 3.0 mg/kg i.p.): > 0.05 | Dunnett's test p vs vehicle, PR break points normalized to baseline ([6]; 10 mg/kg i.p.): < 0.001 | Dunnett's test p vs vehicle, number of METH injections ([6]; 10 mg/kg i.p.): < 0.001 | effect on PR break points normalized to baseline responding ([6]; i.p., 3.0 and 10 mg/kg): significantly reduced PR break points | effect on number of METH injections (PR) ([6]; i.p., 3.0 and 10 mg/kg): significantly and dose-dependently reduced METH injections

O=C(NCC[C@@H](O)CN1CCN(c2cccc(Cl)c2Cl)CC1)c1cc2ccccc2[nH]1 [(R)-1]
Dunnett's test p vs vehicle, PR break points normalized to baseline ([6]; 3.0 mg/kg i.p.): < 0.001 | Dunnett's test p vs vehicle, number of METH injections ([6]; 3.0 mg/kg i.p.): < 0.01 | Dunnett's test p vs vehicle, PR break points normalized to baseline ([6]; 10 mg/kg i.p.): < 0.001 | Dunnett's test p vs vehicle, number of METH injections ([6]; 10 mg/kg i.p.): < 0.01

O=C(NCC[C@H](O)CN1CCN(c2cccc(Cl)c2Cl)CC1)c1cc2ccccc2[nH]1 [(S)-1]
effect on 7-OH DPAT-induced yawning [5]: attenuated 7-OH DPAT-induced yawning in rats | Dunnett's test p vs vehicle, PR break points normalized to baseline ([6]; 3.0 mg/kg i.p.): < 0.01 | Dunnett's test p vs vehicle, number of METH injections ([6]; 3.0 mg/kg i.p.): > 0.05 | Dunnett's test p vs vehicle, PR break points normalized to baseline ([6]; 10 mg/kg i.p.): < 0.001 | Dunnett's test p vs vehicle, number of METH injections ([6]; 10 mg/kg i.p.): < 0.001

O=C(NCCCCN1CCN(c2cccc(Cl)c2Cl)CC1)c1ccc2c(c1)Cc1ccccc1-2 [Compound 2, N-(4-(4-(2,3-dichlorophenyl)piperazin-1-yl)butyl)-9H-fluorene-2-carboxamide]
break point, cocaine PR schedule [7]: significantly lowered the break point | cue- and cocaine-induced reinstatement of cocaine seeking [8]: blocked both cue- and cocaine-induced reinstatement of cocaine seeking

O=C(NC/C=C/CN1CCN(c2cccc(Cl)c2Cl)CC1)c1ccc(-c2ccccn2)cc1 [Compound 3]
PR METH self-administration [9, 22]: reduced PR METH self-administration | PR METH self-administration [9, 23]: in contrast to 3

CN(C)C(=O)N[C@H]1CC[C@H](CCN2CCN(c3cccc(Cl)c3Cl)CC2)CC1 [Compound 6, cariprazine]
D3R-preferential [10]: approximately 10 fold

Cc1ncoc1-c1nnc(SCCCN2C[C@@H]3C[C@]3(c3ccc(C(F)(F)F)cc3F)C2)n1C [Compound 7]
craving [11]: transiently alleviated craving | approach bias [12]: reduced approach bias | attentional bias to palatable food cues [12]: reduced | attentional bias, Stroop Task [13]: partially attenuated an attentional bias

COc1ccccc1N1CCN(CCCCNC(=O)c2ccc3ccccc3c2)CC1 [Compound 8]
outcome of clinical trials for cocaine abuse [14]: failed in clinical trials for cocaine abuse

O=C(NCCCCN1CCN(c2cccc(Cl)c2Cl)CC1)c1ccc(-c2ccccn2)cc1 [Compound 17, N-(4-(4-(2,3-dichlorophenyl)piperazin-1-yl)butyl)-4-(pyridin-2-yl)benzamide]
yawning ([15]; cocaine-naïve rhesus monkeys): failed to do so | yawning ([15]; monkeys with a history of cocaine self-administration): induced yawning similar in magnitude to quinpirole | cocaine self-administration and cocaine-induced reinstatement [16]: failed to attenuate cocaine self-administration or cocaine-induced reinstatement | cocaine- and food-maintained responding ([17]; monkeys, second-order schedule of reinforcement): decreased both cocaine- and food-maintained responding | cocaine's discriminative stimulus effects ([17]; rhesus monkeys): attenuated cocaine’s discriminative stimulus effects | PR METH self-administration [9, 22]: reduced PR METH self-administration | PR METH self-administration [9, 23]: also reduced PR METH self-administration

O=C1CC2(CCCC2)CC(=O)N1CCCCN1CCN(c2ncccn2)CC1 [buspirone]
cocaine-maintained vs food-reinforced behavior ([18]; monkeys self-administering cocaine): decreased cocaine-maintained behavior to a larger degree than food-reinforced behavior | cocaine self-administration vs food-reinforced responding ([18]; rhesus monkeys, continuous infusions): decreased cocaine self-administration to a greater degree than food-reinforced responding | cocaine choice [19]: increased cocaine choice | cocaine use ([20]; 60 mg): increased cocaine use in women | treatment-emergent adverse events [20]: did not include increases in blood pressure | D3R occupancy [21]: < 20%

CCCN1CCC[C@@H]2Cc3n[nH]cc3C[C@H]21 [quinpirole, reference compound]
yawning ([15]; cocaine-naïve rhesus monkeys): induces robust yawning

Reference: PMC4516313 (Journal of Medicinal Chemistry, 2015)
